Measurements as given in patent US8916604B2, “Compositions and methods for epigenetic modification of nucleic acid sequences” (Rutgers, The State University of New Jersey, priority 2011, dated 2014).
Read-outs that look alike come from different tables or passages of the source.

Columns and labels:
[1] = system: DNMT3b; test: Western blot in TRAMP C1 cells; format: cell-based, mouse
Protocol: (§1) The DIM used in the study contains approximately 98% of DIM purchased from Sigma-Aldrich t St. Louis, Mo., USA), TRAMP C1 cells (provided by Dr. Barbara Foster, Department of Pharmacology and Therapeutics, Roswell Park Cancer institute, Buffalo. NY), originally derived from TRAMP prostate tumor, were cultured in Dulbecco's Modified Eagle's Medium (Invitrogen Corp., Carlsbad, Calif. U.S.A.) supplemented with 10% (V/V) fetal bovine serum (FBS) (Invitrogen Corp., Grand Island, N.Y., U.S.A.), penicillin 100 U/ml, and streptomycin 100 μg/ml (Invitrogen Corp., Grand Island, N.Y., U.S.A.), Cells were maintained in a humidified incubator with 5% CO2 at 37° C. Cells were seeded in 10 cm plates for 24 h and then treated with 0.1% DMSO (control) or different concentrations of DIM in 1% FBS containing medium for 5 days. The medium was changed every 2 days (20), The TRAMP C1 cells or dorso-lateral prostate tissues collected from treated and control groups were pooled and homogenized with RIPA buffer (Cell Signaling Technology, Danvers, Mass., U.S.A.) and 10 μg/ml protease inhibitor cocktail (EMD Chemicals, Philadelphia, Pa., U.S.A.). Protein (20 μg) was loaded onto 4-15% SDS-PAGE (Bio-Rad Laboratories, Hercules, Calif., U.S.A.). After separation by SDS-PAGE, the protein was transferred onto nitrocellulose membrane (Millipore Corp., Billerica, Mass., U.S.A.), and then was blocked in 5% bovine serum albumin (BSA) (Fisher Scientific, Fair Law, J. U.S.A.) in tris buffer saline tween-20 (TBST) solution for 1 h. Membranes were probed using the different mono- or polyclonal-antibodies (1:1000) overnight at 4″C. Blots were washed with TBST solution for 15 min 4 times and incubated with the respective secondary antibodies for 1 hr. After washing min 4 times with TBST solution, the immunoreactive bands were determined by adding SuperSignal West Femto mix (1:1 mix of stable peroxide buffer and luminol/enhancer solution (Thermo Scientific, Rockford, Ill., U.S.A.) to detect immunoreactive bands. The bands were visualized and quantified by BioRad ChemiDoc XRS system (Hercules, Calif., U.S.A.). The primary antibodies used were β-actin, Nrf2, NQO1 (Santa Cruz Biotechnology, Santa Cruz, Calif., U.S.A.), HDAC1, HDAC2, HDAC3, HDAC4 (Cell Signaling Technology Inc., Danvers Mass., U.S.A.), HDAC8 (Proteintech Group Inc., Chicago, Ill., U.S.A.) and DNMT1, DNMT3a, DNMT3b (Imgenex, San Diego, Calif., U.S.A.). The secondary antibodies used were goat polyclonal IgG for β-actin and NQO1, rabbit polyclonal IgG for Nrf2, HDAC1, HDAC2, HDAC3, HDAC4 and HDAC8, and mouse polyclonal IgG for DNMT1, DNMT3a, DNMT3b (Santa Cruz Biotechnology, Santa Cruz, Calif., U.S.A.),

[2] = system: HDAC2; test: Western blot in TRAMP C1 cells; format: cell-based, mouse
Protocol: as §1

[3] = system: HDAC3; test: Western blot in TRAMP C1 cells; format: cell-based, mouse
Protocol: as §1

[4] = system: HepG2-C8 cells; test: MTS cell viability assay; format: cell-based, human; details: Homo sapiens
Protocol: The stably transfected single clone HepG2-ARE-C8 (HepG2-C8) cell line has been established previously in our laboratory using the […]-luciferase reporter gene. The cells were maintained in Dulbecco's modified Eagle medium supplemented with 10% fetal bovine serum (FBS), 1.17 g/l sodium bicarbonate, and 100 unit/ml penicillin, 100 μg/ml streptomycin at 37° C. in a humidified incubator with 5% CO2. […] MTS] (Promega, Madison, Wis.). […] The cells were then treated with MTS for 1 h at 37° C. Absorbance of the formazan product was read at 490 nm with a μQuant Biomolecular Spectrophotometer from Bio-Tek Instruments Inc. (Winooski, Vt.). Independent control studies were conducted using 1% and 10% FBS medium.

[5] = system: HO-1; test: qPCR mRNA expression in HepG2-C8 cells; format: cell-based, human; details: 25 μM, 6 h, vs 0.1% DMSO
Protocol: (§2) The cells were treated similarly to the NITS and ARE-luciferase assays described above using 10% FBS medium. The incubation of the compounds with the cells was terminated 6 h later. The mRNA expression was evaluated utilizing a quantitative real-time polymerase chain reaction (qPCR). An RNeasy kit from Qiagen was used for RNA extraction (Valencia, Calif.). The total RNA was reverse-transcribed to cDNA by TaqMan Reverse Transcription Reagents (Applied Biosystems Inc, Foster City, Calif.). SYBR Green (Applied Biosystems Inc, Foster City, Calif.) fluorescence was used to measure the product of qPCR. Glyceraldehyde 3-phosphate dehydrogenase (GAPDH) was used as the housekeeping gene, and the Applied Biosystems 7900HT Fast Real-Time PCR System (Applied Biosystems Inc, Foster City, Calif.) was used as described previously (Saw et al., Biochem Pharmacol 2010; 79: 421-430) to detect quantitatively the induction of mRNA of Nrf2, phase II DME GSTm2, NAD (P)H dehydrogenase, quinone 1 (NQO1), UGT family, polypeptide A1 (UGT1A1) and antioxidant enzymes HO-1, superoxide dismutase 1 (SOD1). The primer pairs were designed using the Primer Quest Oligo Design and Analysis Tool by Integrated DNA Technologies Inc. (Coralville, Iowa, USA) and the sequences are listed in Table 4. At least four wells of each treatment were performed and duplicate samples were carried out for each treatment.

[6] = system: Nrf2; test: qPCR mRNA expression in HepG2-C8 cells; format: cell-based, human; details: 25 μM, 6 h, vs 0.1% DMSO
Protocol: as §2

## c1ccc2c(Cc3c[nH]c4ccccc34)c[nH]c2c1 [DIM, 3,3′-diindolylmethane]
[1]
  DNMT3b protein level: suppressed
[2]
  HDAC2 protein expression: suppress
[3]
  HDAC3 protein expression: suppress
[4]; HepG2C8, 1% FBS medium, read-out: cell viability inhibitory concentrations (IC50)
  IC50: 51 µM
[4]; HepG2C8, 10% FBS medium (data not shown), read-out: cell viability IC50
  IC50: ~85 µM
[5]
  HO-1 mRNA induction over control: ~3 fold
[6]
  Nrf2 mRNA induction over control: ~3 fold
